Patent US8815857B2 (Boehringer Ingelheim International GmbH, priority 2011, dated 2014)
≈ marks a conversion by molar mass, not a printed value.

Assays:
[1] = biological target: T1, human soluble guanylate cyclase alpha 1 and beta 1 subunits (sGC) stably expressed in Chinese hamster ovary cells (Homo sapiens, UniProt Q02108+Q02153); test: sGC cellular activator assay: cGMP in CHO cells expressing human sGC, preincubated with ODQ; assay type: cell-based; conditions: 40 microM ODQ preincubation, 30 min at room temperature, presence or absence of 50% human serum not given, read-out: EC50 nM, Activity of Compounds in Cellular Assay
T1 construct: expressed in transfected cells; host or cells: Chinese hamster ovary cells, stably transfected
T1 sequence (Q02108 1-690 partner): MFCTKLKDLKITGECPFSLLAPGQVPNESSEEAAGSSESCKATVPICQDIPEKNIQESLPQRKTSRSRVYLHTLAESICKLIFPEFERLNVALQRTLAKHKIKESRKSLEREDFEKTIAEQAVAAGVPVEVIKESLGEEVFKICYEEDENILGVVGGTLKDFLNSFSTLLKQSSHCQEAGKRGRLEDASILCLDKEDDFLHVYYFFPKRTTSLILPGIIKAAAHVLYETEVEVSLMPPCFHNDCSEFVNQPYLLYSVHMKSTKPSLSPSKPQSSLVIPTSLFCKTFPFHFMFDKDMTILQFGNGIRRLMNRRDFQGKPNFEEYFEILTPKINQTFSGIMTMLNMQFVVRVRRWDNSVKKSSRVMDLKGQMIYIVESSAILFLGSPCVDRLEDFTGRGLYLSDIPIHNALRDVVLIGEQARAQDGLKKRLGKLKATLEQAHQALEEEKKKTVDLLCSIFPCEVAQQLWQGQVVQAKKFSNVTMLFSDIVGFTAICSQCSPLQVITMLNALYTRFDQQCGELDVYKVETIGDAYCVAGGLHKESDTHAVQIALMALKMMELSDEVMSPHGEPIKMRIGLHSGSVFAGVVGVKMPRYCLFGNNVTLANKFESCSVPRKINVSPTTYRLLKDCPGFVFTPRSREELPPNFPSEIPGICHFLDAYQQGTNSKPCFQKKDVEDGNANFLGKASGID
T1 sequence (Q02153 1-619): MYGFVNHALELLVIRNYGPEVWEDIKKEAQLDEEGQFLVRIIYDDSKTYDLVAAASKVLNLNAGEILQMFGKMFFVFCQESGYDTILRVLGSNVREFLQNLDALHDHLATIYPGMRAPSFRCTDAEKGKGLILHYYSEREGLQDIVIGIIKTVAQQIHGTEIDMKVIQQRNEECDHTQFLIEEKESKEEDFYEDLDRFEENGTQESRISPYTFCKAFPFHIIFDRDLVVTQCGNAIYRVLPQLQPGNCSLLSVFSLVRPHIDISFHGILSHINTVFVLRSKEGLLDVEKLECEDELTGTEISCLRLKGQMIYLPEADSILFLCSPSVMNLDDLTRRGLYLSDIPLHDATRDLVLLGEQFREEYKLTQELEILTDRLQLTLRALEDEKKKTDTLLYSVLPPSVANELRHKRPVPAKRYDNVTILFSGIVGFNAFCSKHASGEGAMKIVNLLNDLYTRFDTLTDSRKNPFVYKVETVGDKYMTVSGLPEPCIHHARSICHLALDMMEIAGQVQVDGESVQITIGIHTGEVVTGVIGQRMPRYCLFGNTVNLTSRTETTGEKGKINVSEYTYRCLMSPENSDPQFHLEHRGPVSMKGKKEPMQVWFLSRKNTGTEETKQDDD
Description: The sGC cellular activator assay is performed in the presence and absence of 50% human serum (HS) using Chinese hamster ovary cells that have been stably transfected to express the human soluble guanylate cyclase alpha 1 and beta 1 subunits (sGC). Cells are preincubated with 40 microM 1H-[1,2,4]oxadiazolo[4,3-a]quinoxalin-1-one (ODQ), an sGC inhibitor, for one hour in buffer containing 0.1% bovine serum albumin and 3-isobutyl-1-methylxanthine (IBMX). Concentration response curves are prepared for test compounds in DMSO. An intermediate dilution of the compounds is performed in either buffer containing IBMX or type AB HS containing IBMX. Diluted compounds are added to cells and they are incubated at room temperature for thirty minutes. cGMP is measured using a CisBio homogeneous time resolved fluorescence kit and the EC50 is calculated for each compound.

[2] = Assessment of solubility: HT solubility in pION buffer, UV spectrophotometry; conditions: kinetic from dmso stock
[3] = pH 6.8, aqueous buffer, Solubility (pH 6.8), pH 6.8
[4] = pION system solution buffer, pH 4.5, pH 4.5, aqueous buffer, Solubility (pH 4.5), pH 4.5 buffer, 16-19 h incubation, 1.0% DMSO
[5] = pION system solution buffer, pH 7.4, pH 7.4, aqueous buffer, Solubility (pH 7.4), pH 7.4 buffer, 16-19 h incubation, 1.0% DMSO

SMILES | EC50 [1] | solubility [2, 3] | solubility [2, 4] | solubility [2, 5]
Cc1ccc(OCc2ccc(C(=O)N3CCN(C)C(=O)C3)cc2C)c(-c2csc(N3CCC(C(=O)O)CC3)n2)c1 [Compound 349] | 40 nM | 69 µg/mL (≈ 123 µM) | 6.5 µg/mL (≈ 11.6 µM) | –
Cc1ccc(OCc2ccc(C(=O)N(C)CCC(C)(C)O)cc2C)c(-c2csc(N3C[C@H]4CC[C@@H](C3)[C@H]4C(=O)O)n2)c1 [Compound 348] | 41 nM | 71 µg/mL (≈ 120 µM) | 0.27 µg/mL (≈ 0.456 µM) | 37 µg/mL (≈ 62.5 µM)
Cc1ccc(OCc2ccc(C(=O)N3CC[C@H](CO)C3)cc2C)c(-c2csc(N3C[C@H]4CC[C@@H](C3)[C@H]4C(=O)O)n2)c1 [Compound 325] | 29 nM | 59 µg/mL (≈ 102 µM) | 0.17 µg/mL (≈ 0.295 µM) | –
Cc1ccc(OCc2ccc(C(=O)N(C)CC3CCCO3)cc2C)c(-c2csc(N3C[C@H]4CC[C@@H](C3)[C@H]4C(=O)O)n2)c1 (stereo partly shown) [Compound 306] | 21 nM | 50 µg/mL (≈ 84.8 µM) | 0.13 µg/mL (≈ 0.22 µM) | 5.2 µg/mL (≈ 8.82 µM)
Cc1ccc(OCc2ccc(CN3CCOC(C)(C)C3)cc2C#N)c(-c2csc(N3C[C@H]4CC[C@@H](C3)[C@H]4C(=O)O)n2)c1 [Compound 358] | 30 nM | 8.1 µg/mL (≈ 13.8 µM) | 0.14 µg/mL (≈ 0.239 µM) | –
Cc1ccc(OCc2ccc(C(=O)N3CCC[C@@H](O)C3)cc2C)c(-c2csc(N3C[C@H]4CC[C@@H](C3)[C@H]4C(=O)O)n2)c1 [Compound 312] | 35 nM | 13 µg/mL (≈ 22.6 µM) | 0.26 µg/mL (≈ 0.452 µM) | –
Cc1ccc(OCc2ccc(C(=O)N3C[C@H]4CC[C@@H](C3)O4)cc2C)c(-c2csc(N3C[C@H]4CC[C@@H](C3)[C@H]4C(=O)O)n2)c1 [Compound 340] | 19 nM | 0.26 µg/mL (≈ 0.442 µM) | < 0.1 µg/mL | –
Cc1ccc(OCc2ccc(C(=O)N3CCCCC3)cc2C)c(-c2csc(N3CC(CC(=O)O)C3)n2)c1 [Compound 251] | 240 nM | 56 µg/mL (≈ 108 µM) | 0.15 µg/mL (≈ 0.289 µM) | –
Cc1ccc(OCc2ccc(C(=O)N3CCN(C)CC3)cc2C)c(-c2csc(N3C[C@H]4CC[C@@H](C3)[C@H]4C(=O)O)n2)c1 [Compound 300] | 44 nM | 60 µg/mL (≈ 104 µM) | 53 µg/mL (≈ 92.2 µM) | –
Cc1ccc(OCc2ccc(C(=O)N3CCCCC3)cc2C)c(-c2csc(N3CC4(CC4C(=O)O)C3)n2)c1 (stereo not shown) [Compound 248] | 110 nM | 47 µg/mL (≈ 88.4 µM) | < 0.1 µg/mL | –
Cc1ccc(OCc2ccc(CN3CCOCC3)cc2OC(F)(F)F)c(-c2csc(N3C[C@H]4CC[C@@H](C3)[C@H]4C(=O)O)n2)c1 [Compound 280] | 16 nM | 0.9 µg/mL (≈ 1.46 µM) | 0.72 µg/mL (≈ 1.17 µM) | –
Cc1ccc(OCc2ccc(C(=O)N3CCOCC3)c(C)c2)c(-c2csc(N3C[C@H]4CC[C@@H](C3)[C@H]4C(=O)O)n2)c1 [Compound 281] | 28 nM | 4.6 µg/mL (≈ 8.19 µM) | < 0.1 µg/mL | –
CO[C@H]1CCN(C(=O)c2ccc(COc3ccc(C)cc3-c3csc(N4C[C@H]5CC[C@@H](C4)[C@H]5C(=O)O)n3)c(C)c2)C1 [Compound 328] | 29 nM | 62 µg/mL (≈ 108 µM) | < 0.1 µg/mL | –
Cc1ccc(OCc2ccc(CN3CCOCC3)cc2C#N)c(-c2csc(N3C[C@H]4CC[C@@H](C3)[C@H]4C(=O)O)n2)c1 [Compound 264] | 21 nM | 12 µg/mL (≈ 21.5 µM) | 21 µg/mL (≈ 37.6 µM) | –
Cc1ccc(OCc2c(C)cc(C(=O)N3CCN(C)C(=O)C3)cc2C)c(-c2csc(N3C[C@H]4CC[C@@H](C3)[C@H]4C(=O)O)n2)c1 [Compound 284] | 100 nM | 66 µg/mL (≈ 109 µM) | 0.65 µg/mL (≈ 1.08 µM) | –
Cc1ccc(OCc2ccc(C(=O)N(C)Cc3ncc[nH]3)cc2C)c(-c2csc(N3C[C@H]4CC[C@@H](C3)[C@H]4C(=O)O)n2)c1 [Compound 334] | 160 nM | 24 µg/mL (≈ 41 µM) | 11 µg/mL (≈ 18.8 µM) | –
Cc1ccc(OCc2ccc(C(=O)N(C)CCCO)cc2C)c(-c2csc(N3C[C@H]4CC[C@@H](C3)[C@H]4C(=O)O)n2)c1 [Compound 324] | 66 nM | 73 µg/mL (≈ 129 µM) | 0.92 µg/mL (≈ 1.63 µM) | –
COC1CCCN(C(=O)c2ccc(COc3ccc(C)cc3-c3csc(N4C[C@H]5CC[C@@H](C4)[C@H]5C(=O)O)n3)c(C)c2)C1 (stereo partly shown) [Compound 322] | 19 nM | 42 µg/mL (≈ 71.2 µM) | 0.15 µg/mL (≈ 0.254 µM) | –
Cc1ccc(OCc2ccc(C(=O)N3CC[C@H](N(C)C)C3)cc2C)c(-c2csc(N3C[C@H]4CC[C@@H](C3)[C@H]4C(=O)O)n2)c1 [Compound 311] | 29 nM | 63 µg/mL (≈ 107 µM) | 58 µg/mL (≈ 98.5 µM) | –
Cc1ccc(OCc2ccc(C(=O)N3CCN(C)C(=O)C3)c(C)c2)c(-c2csc(N3C[C@H]4CC[C@@H](C3)[C@H]4C(=O)O)n2)c1 [Compound 286] | 37 nM | 83 µg/mL (≈ 141 µM) | 1 µg/mL (≈ 1.7 µM) | –
CCN(CCC#N)C(=O)c1ccc(COc2ccc(C)cc2-c2csc(N3C[C@H]4CC[C@@H](C3)[C@H]4C(=O)O)n2)c(C)c1 [Compound 307] | 24 nM | 37 µg/mL (≈ 64.6 µM) | 0.15 µg/mL (≈ 0.262 µM) | –
Cc1ccc(OCc2ccc(CN3CCN(C)C(=O)C3)cc2C)c(-c2csc(N3C[C@H]4CC[C@@H](C3)[C@@]4(C)C(=O)O)n2)c1 [Compound 269] | 9.5 nM | 16 µg/mL (≈ 27.2 µM) | 0.28 µg/mL (≈ 0.476 µM) | –
Cc1ccc(OCc2ccc(CN3CCS(=O)(=O)CC3)cc2C)c(-c2csc(N3CC[C@]4(C(=O)O)C[C@@H]4C3)n2)c1 [Compound 222] | 110 nM | 3.3 µg/mL (≈ 5.67 µM) | < 0.1 µg/mL | 30 µg/mL (≈ 51.6 µM)
Cc1ccc(OCc2ccc(C(C)N3CCOCC3)cc2C)c(-c2csc(N3CC4CCC(C3)C4C(=O)O)n2)c1 (stereo not shown) [Compound 276] | 45 nM | 1.9 µg/mL (≈ 3.38 µM) | 32 µg/mL (≈ 57 µM) | 41 µg/mL (≈ 73 µM)
CCc1cc(C(=O)N2CCCCC2)ccc1COc1ccc(C)cc1-c1csc(N2C[C@H]3CC[C@@H](C2)[C@H]3C(=O)O)n1 [Compound 287] | 6.2 nM | 21 µg/mL (≈ 36.6 µM) | < 0.1 µg/mL | –
Cc1ccc(OCc2ccc(C(=O)N3CC[C@@H](O)C3)cc2C)c(-c2csc(N3C[C@H]4CC[C@@H](C3)[C@H]4C(=O)O)n2)c1 [Compound 341] | 110 nM | 63 µg/mL (≈ 112 µM) | 1.1 µg/mL (≈ 1.96 µM) | –
